For 1 compound, IC50 results are on record in US12448358B2, “Inhibitors of protein arginine deiminase 1 and methods of preparation and use thereof” (University of Massachusetts, priority 2019, dated 2025).

A word on the IC50: it is the concentration that gives 50% inhibition. A low value points to greater potency.

Structures are written as SMILES.

For this experiment, the target named is T1, PAD1 (Homo sapiens, UniProt Q9ULC6).
T1 construct: made in house
T1 sequence (Q9ULC6 1-663): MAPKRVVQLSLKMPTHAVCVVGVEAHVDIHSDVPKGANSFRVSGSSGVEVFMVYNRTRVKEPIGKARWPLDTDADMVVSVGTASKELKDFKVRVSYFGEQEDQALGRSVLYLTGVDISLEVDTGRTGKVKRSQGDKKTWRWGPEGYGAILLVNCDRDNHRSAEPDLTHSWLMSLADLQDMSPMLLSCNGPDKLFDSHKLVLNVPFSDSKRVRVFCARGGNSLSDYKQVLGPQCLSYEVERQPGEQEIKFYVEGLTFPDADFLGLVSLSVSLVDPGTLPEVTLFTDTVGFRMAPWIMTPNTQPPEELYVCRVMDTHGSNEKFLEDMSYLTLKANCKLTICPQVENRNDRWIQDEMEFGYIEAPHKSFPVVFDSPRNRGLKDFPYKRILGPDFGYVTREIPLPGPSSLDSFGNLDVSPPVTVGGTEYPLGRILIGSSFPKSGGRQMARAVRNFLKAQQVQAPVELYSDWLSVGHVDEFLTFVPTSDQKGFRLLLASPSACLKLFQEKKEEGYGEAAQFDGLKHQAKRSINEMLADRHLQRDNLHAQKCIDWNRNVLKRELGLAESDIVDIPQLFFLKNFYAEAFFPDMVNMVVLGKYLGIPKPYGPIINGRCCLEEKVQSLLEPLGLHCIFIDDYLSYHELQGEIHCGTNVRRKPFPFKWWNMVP
Kind of experiment: Inhibition of RFA labelling of PAD1 (ABPP assay). It is filed as binding. The following applies: PAD1 2 μM, RFA 2 μM, 37° C., 2 h. From the text: The halogen-dependent change in potency of the PAD1 inhibitors was further confirmed using an activity-based protein profiling (ABPP) assay that uses the PAD-targeted probe, rhodamine-conjugated F-amidine (RFA, FIG. 2C).
RFA enables the covalent modification and fluorescent labelling of PADs with the help of its fluoroacetamidine and rhodamine moieties, respectively. However, in the presence of a PAD inhibitor that can compete for binding to the active site, RFA labelling is inhibited. […] Similar results were obtained with the chloroacetamidine-containing compounds 2, 12, 14 and 8 (FIG. 9).
RFA labelling. RFA labelling of PAD1 in the presence of inhibitors followed a protocol similar to that established for PAD2. (Mondal, et al. ACS Chem. Biol. 2018, 13, 1057-1065.) Briefly, PAD1 (2 μM final) was added to prewarmed (10 min at 37° C.) reaction mixture (100 mM TRIS pH 7.4, 50 mM NaCl, 10 mM CaCl2, and 2 mM DTT in a final volume of 30 μL) containing RFA (2 μM final) and DMSO or various concentrations of the inhibitor. […] In-gel fluorescence of the protein bands was recorded using a typhoon scanner (excitation/emission maxima of ˜546/579, respectively) and was quantified using ImageJ software. IC50 values of the inhibitors were obtained by plotting the relative decrease in the fluorescence intensity of protein bands against the concentration of inhibitor. […]

On to `N=C(CF)NCCC[C@H](NC(=O)c1cc(I)cc(I)c1O)c1nc2ccccc2[nH]1` [Compound 1], for which the IC50 is 18 µM.
